Results as given in patent publication US10060189B2, “Hexadecene synthetic drilling fluid with improved environmental properties” (priority 2014, dated 2018).

Legend:
Leptocheirus plumulosus = experiment: 10-day sediment toxicity test (EPA Method 1644); format: in vivo
Text: The term “sediment toxicity” as used herein for drilling fluids and drill cuttings refers to EPA Method 1644: “Method for Conducting a Sediment Toxicity Test with Leptocheirus plumulosus and Non-Aqueous Drilling Fluids or Synthetic-Based Drilling Muds” and sediment preparation procedures specified in EPA Method 1646. EPA Method 1644 is published in “Analytic Methods for the Oil and Gas Extraction Point Source Category.” The 10-day Leptocheirus plumulosus toxicity test characterizing the sediment toxicity according to BAT (“Best Available Technology Economically Achievable) effluent limitations and NSPS (“New Source Performance Standards”) means the concentration (milligrams/kilogram dry sediment) of the base fluid in sediment that is lethal to 50 percent of the Leptocheirus plumulosus test organisms exposed to that concentration of the base fluids after ten days of constant exposure. The test is defined in ASTM Standard No. E1367-03 (2008) which is incorporated herein by reference.

[1] = 275-day anaerobic biodegradation test (modified ISO 11734)
Text: The term “biodegradation rate” as used herein for drilling fluids and drill cuttings is in connection with the method for performing the 275-day anaerobic biodegradation test and is defined in Federal Register, Part IV Environmental Protection Agency, 40 CFR Parts 9 and […] entitled “Effluent Limitations Guidelines and New Source Performance Standards for the Oil and Gas Extraction Point Source Category”, Fed. Reg. Vol. 66, No. 14, Jan. 22, 2001, Appendix 4 to Subpart A of Part 435, incorporated herein by reference. The 275-day anaerobic biodegradation test described in Appendix 4 to Subpart A of Part 435 is based on a modification of ISO Standard No. 11734:1995 (also incorporated herein by reference) for use in a marine environment.

[2] = Kinematic viscosity (ASTM D445-06); format: physicochemical
Procedure: The phrase “kinematic viscosity” refers to a measurement of the resistance to the flow of a fluid. Many base oils, drilling fluid compositions made from them, and the correct operation of equipment depends upon the appropriate viscosity of the fluid being used. Kinematic viscosity is determined by ASTM D445-06. The results are reported in mm^2/s or centistoke. The term “centistoke,” abbreviated “cSt,” is a unit for kinematic viscosity of a fluid (e.g., a drilling fluid), wherein 1 centistoke equals 1 millimeter squared per second (1 cSt=1 mm^2/s). It is also the ratio of the dynamic viscosity of a fluid to the fluid density. See, e.g., ASTM Standard Guide and Test Methods D 2270-04, D 445-06, D 6074, and D 2983.

Flash point = format: physicochemical
Pour point (ASTM D97) = format: physicochemical
Text: The phrase “pour point” refers to the lowest temperature at which a fluid will pour or flow. (See, e.g., ASTM International Standard Test Method D97). The results are reported in degrees Celsius. Many commercial base oils have specifications for pour point. When base oils have low pour points, the base oils are also likely to have other good low temperature properties, such as low cloud point, and low cold flow viscosity.

Density = format: physicochemical

## C=CCCCCCCCCCCCCCC [1-hexadecene]
Leptocheirus plumulosus; 10 day, ratio reference fluid/test fluid, <1 passes
  Sediment Toxicity L. plumulosus 10 day LC50 Compliance Ratio (Ref Fluid/Test Fluid): 0.35
Leptocheirus plumulosus; in vivo
  EPA requirement in the 10-day sediment toxicity test: consistently passes
[1]; 275 day, ratio reference fluid/test fluid, <1 passes
  275 Day Anaerobic Biodegradation % Compliance Ratio (Ref Fluid/Test Fluid): 0.8
[1]; versus C1618 IO standard
  EPA requirement in the 275 day anaerobic biodegradation test: consistently passes
[2]
  Kinematic Viscosity at 40° C.: 2.4 cSt
Flash point
  Flash Point: 125 °C
Pour point (ASTM D97); Table 2 and text
  Pour Point: 4 °C
Pour point (ASTM D97); Table 2 and text, listed as 1-hexadecene
  Pour Point: +4 °C
Pour point (ASTM D97); Table 3, blends by ratio C16 unbranched isomerized olefin to 1-hexadecene
  Pour Point: 4 deg C.
Pour point (ASTM D97); Table 3, compared to 1-hexadecene
  Depression in Pour Point Compared to 1-hexadecene: 0 deg C.
Density
  Density: 0.785 g/cc
